17 compounds from ChEMBL document CHEMBL5500370, “Discovery of potent and novel dual NAMPT/BRD4 inhibitors for efficient treatment of hepatocellular carcinoma” (Eur J Med Chem, 2024) can be followed below.

The test system of series [1] is Hep 3B2. In words: cells. The settings on record: Homo sapiens, Hep3B, 120 h.
Series [2] deals with Bromodomain-containing protein 4 (Homo sapiens, UniProt O60885). Nature of the series: Inhibition of BRD4 (unknown origin) incubated for 120 mins by TR-FRET assay. (In general: Time-resolved FRET reads energy transfer from a long-lived donor to a nearby acceptor.)
Series [3] has as its target Nicotinamide phosphoribosyltransferase (Homo sapiens, UniProt P43490). In words: Inhibition of recombinant NAMPT (unknown origin) by fluorescence based assay.
In series [4] the test system is HCCLM3. Nature of the series: Antitumor activity against human HCCLM3 cells xenografted in BALB/c nude mouse at 60 mg/kg, ip for 27 days relative to control. The format is functional. The conditions noted are these: time 27 day. (A xenograft is tissue or cells of one species grown in another, often human tumour cells in immunodeficient mice.)
For series [5], the system named is Hep 3B2. Nature of the series: Induction of apoptosis in human Hep3B cells assessed as necrotic cells at 10 uM measured after 72 hrs by Annexin V-FITC/PI staining based flow cytometry (reference value: 2.74 %). The format is functional. (In general: Flow cytometry measures light scatter and fluorescence of single cells or particles in a stream.)
The test system of series [6] is Hep 3B2. In words: Induction of cell cycle arrest at G0/G1 phase in human Hep3B cells at 10 uM measured after 72 hrs by PI/RNase staining based flow cytometry (reference value: 56.73 %). The format is functional.
For series [7], the system named is Hep 3B2. Nature of the series: Induction of apoptosis in human Hep3B cells assessed as late apoptotic cells at 10 uM measured after 72 hrs by Annexin V-FITC/PI staining based flow cytometry (reference value: 1.05 %). The format is functional.
Series [8] deals with Huh-7. Nature of the series: Antiproliferative activity against human Huh-7 cells incubated for 120 hrs in presence of JQ1 by MTT assay. The conditions noted are these: Huh-7, 120 h. The series is classed as functional, cell-based.
The subject of series [9] is Huh-7. In words: cells. The settings on record: Homo sapiens, Huh-7, 120 h.
Series [10] in a line: Antiproliferative activity against human LX2 cells incubated for 120 hrs by MTT assay. The series is classed as toxicity, cell-based. The settings on record: LX-2 cells.
Series [11] has as its system HCCLM3. Nature of the series: cells. The conditions noted are these: Homo sapiens, HCCLM3, 120 h.
Series [12] is described as follows: Antiproliferative activity against human LX2 cells incubated for 120 hrs in presence of JQ1 by MTT assay. The format is toxicity, cell-based. The conditions noted are these: LX-2 cells.
Series [13] deals with HCCLM3. In words: Antiproliferative activity against human HCCLM3 cells incubated for 120 hrs in presence of JQ1 by MTT assay. The series is classed as functional, cell-based. The settings on record: HCCLM3, 120 h.
Series [14] has as its system Hep 3B2. In words: Induction of apoptosis in human Hep3B cells assessed as viable cells at 10 uM measured after 72 hrs by Annexin V-FITC/PI staining based flow cytometry (reference value: 94.08 %). The format is functional.
Series [15] concerns Hep 3B2. Nature of the series: Induction of apoptosis in human Hep3B cells assessed as early apoptotic cells at 10 uM measured after 72 hrs by Annexin V-FITC/PI staining based flow cytometry (reference value: 2.13 %). The format is functional.
Series [16] concerns Hep 3B2. Nature of the series: Synergistic antiproliferative activity against human Hep3B cells measured after 72 hrs in presence of JQ1. The series is classed as functional, cell-based.
The test system of series [17] is Hep 3B2. Nature of the series: Induction of cell cycle arrest at S phase in human Hep3B cells at 10 uM measured after 72 hrs by PI/RNase staining based flow cytometry (reference value: 31.90 %). The series is classed as functional.
Series [18] relates to Hep 3B2. Nature of the series: Induction of cell cycle arrest at G2/M phase in human Hep3B cells at 10 uM measured after 72 hrs by PI/RNase staining based flow cytometry (reference value: 11.37 %). The series is classed as functional.
Series [19] has as its system Hep 3B2. In words: Antiproliferative activity against human Hep3B cells measured after 72 hrs. The series is classed as functional, cell-based.
Series [20] deals with Hep 3B2. In words: Synergistic antiproliferative activity against human Hep3B cells measured after 72 hrs in presence of FK866. The series is classed as functional, cell-based.
The test system of series [21] is Huh-7. Nature of the series: Antiproliferative activity against human Huh-7 cells incubated for 120 hrs in presence of FK866 by MTT assay. The series is classed as functional, cell-based. The settings on record: Huh-7, 120 h.
Series [22] deals with HCCLM3. Nature of the series: Antiproliferative activity against human HCCLM3 cells incubated for 120 hrs in presence of FK866 by MTT assay. The series is classed as functional, cell-based. The conditions noted are these: HCCLM3, 120 h.
A short description of series [23]: Antiproliferative activity against human LX2 cells incubated for 120 hrs in presence of FK866 by MTT assay. The series is classed as toxicity, cell-based. The conditions noted are these: LX-2 cells.

Structures are written as SMILES.

Chain of Nicotinamide phosphoribosyltransferase (P43490 whole entry): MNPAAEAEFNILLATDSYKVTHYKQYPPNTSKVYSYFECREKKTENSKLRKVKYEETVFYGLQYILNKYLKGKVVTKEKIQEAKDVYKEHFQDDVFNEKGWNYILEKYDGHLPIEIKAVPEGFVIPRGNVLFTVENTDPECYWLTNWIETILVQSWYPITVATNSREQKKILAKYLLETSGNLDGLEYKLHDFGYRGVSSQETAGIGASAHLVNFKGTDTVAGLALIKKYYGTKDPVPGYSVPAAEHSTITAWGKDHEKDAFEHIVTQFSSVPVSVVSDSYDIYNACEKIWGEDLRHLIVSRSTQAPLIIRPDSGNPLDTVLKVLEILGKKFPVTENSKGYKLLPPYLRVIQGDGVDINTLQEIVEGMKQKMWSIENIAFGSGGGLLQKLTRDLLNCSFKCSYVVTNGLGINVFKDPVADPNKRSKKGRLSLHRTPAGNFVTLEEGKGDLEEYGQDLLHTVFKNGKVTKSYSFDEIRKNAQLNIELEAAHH

Turning to `Cc1sc2c(c1C)C(c1ccc(Cl)cc1)=N[C@@H](CC(=O)NCCCCNC(=O)/C=C/c1cccnc1)c1nnc(C)n1-2`, the results for the IC50 in series [1], in series [2] and in [3] were 9090 nM, 127 nM and 10 nM, respectively.

In the case of `O=C(/C=C/c1cccnc1)NCCCCC1CCN(C(=O)c2ccccc2)CC1` [DAPORINAD], the inhibition in vivo at 60 mg/kg in series [4] (Mus musculus, HCCLM3, 648 h, read-out: TGI) worked out at 50.1%. In addition, the Activity in series [5] was 3.67%; in series [6] it was 63.07%; in series [7], 4.26%; in series [15], 5.13%; in series [17], 28.62%; in [18], 8.31%. Moreover, the IC50 in series [8] is 670 nM; in [1] it was 53700 nM; in series [9] it was 2120 nM; in series [11], 1010 nM; in series [13], 400 nM; in series [16], 1550 nM. In addition, 53700 nM corresponded to half-maximal inhibition in series [19] (IC50). Moreover, the IC50 at 120 h is 210 nM in series [10] and under 32 nM in [12]. Besides, in series [14] (Homo sapiens, Hep3B, read-out: Activity), the viability at 10 µM is 86.9%.

For the compound `Cc1sc2c(c1C)C(c1ccc(Cl)cc1)=N[C@@H](CC(=O)NCCOCCNC(=O)/C=C/c1cccnc1)c1nnc(C)n1-2`, the IC50 in [1] worked out at 27300 nM; in series [2], 315 nM; in series [3], 167 nM.

In the case of `Cc1sc2c(c1C)C(c1ccc(Cl)cc1)=N[C@@H](CC(=O)N1CCC(CCCNC(=O)/C=C/c3cccnc3)CC1)c1nnc(C)n1-2`, the IC50 in [1] worked out at 4820 nM; in [2] it was 615 nM; in series [3], 165 nM.

For the compound `Cc1sc2c(c1C)C(c1ccc(Cl)cc1)=N[C@@H](CC(=O)N1CCC(NC(=O)/C=C/c3cccnc3)CC1)c1nnc(C)n1-2`, the half-maximal inhibitory concentration (IC50) in [1] was 5390 nM; in series [2] it was 276 nM; in [3] it was over 1000 nM.

Consider `Cc1sc2c(c1C)C(c1ccc(Cl)cc1)=N[C@@H](CC(=O)NCc1ccc(NC(=O)/C=C/c3cccnc3)cc1)c1nnc(C)n1-2`, for which the IC50 in [1] amounted to 9560 nM; in [2], 319 nM; in series [3] it was 309 nM.

Regarding `Cc1sc2c(c1C)C(c1ccc(Cl)cc1)=N[C@@H](CC(=O)N1CCC(CCNC(=O)/C=C/c3cccnc3)CC1)c1nnc(C)n1-2`, the IC50 in [1] came to 6260 nM; in series [2], 180 nM; in [3], 87 nM.

With `Cc1sc2c(c1C)C(c1ccc(Cl)cc1)=N[C@@H](CC(=O)Nc1ccc(NC(=O)/C=C/c3cccnc3)cc1)c1nnc(C)n1-2`, the figures for the IC50 in series [1], in [2] and in series [3] were 24700 nM, over 1000 nM and 456 nM, respectively.

For the compound `Cc1sc2c(c1C)C(c1ccc(Cl)cc1)=N[C@@H](CC(=O)NCCOCCOCCNC(=O)/C=C/c1cccnc1)c1nnc(C)n1-2`, the results for the IC50 in [1], in series [2] and in series [3] were 21900 nM, 525 nM and 13 nM, respectively.

With `Cc1sc2c(c1C)C(c1ccc(Cl)cc1)=N[C@@H](CC(=O)NCCCCCCNC(=O)/C=C/c1cccnc1)c1nnc(C)n1-2`, the IC50 was determined as 8140 nM in series [1], 153 nM in series [2] and 12 nM in series [3].

In the case of `Cc1sc2c(c1C)C(c1ccc(Cl)cc1)=N[C@@H](CC(=O)NCc1ccc(CNC(=O)/C=C/c3cccnc3)cc1)c1nnc(C)n1-2`, the results for the IC50 in series [1], in series [2] and in [3] were 4550 nM, 129 nM and 199 nM, respectively.

In the case of `Cc1sc2c(c1C)C(c1ccc(Cl)cc1)=N[C@@H](CC(=O)N1CCC(CCCCNC(=O)/C=C/c3cccnc3)CC1)c1nnc(C)n1-2`, the IC50 in series [1] was 8080 nM; in series [2], over 1000 nM; in series [3], 35 nM.

On to `Cc1sc2c(c1C)C(c1ccc(Cl)cc1)=N[C@@H](CC(=O)OC(C)(C)C)c1nnc(C)n1-2`, for which the IC50 in series [20] came to 1550 nM; in series [21], 670 nM; in series [1], 5000 nM; in series [22], 400 nM; in [9], 62800 nM; in [11], 86200 nM. Further, in series [19], the IC50 was 5000 nM. The TGI in [4] is on record as 51.08%. For the same compound, the Activity was 3.54% in series [5]; 73.49% in series [6]; 5.83% in [7]; 74.38% in series [14]; 16.25% in series [15]; 17.92% in [17]. In [18], this compound showed an Activity of 8.59%. Further, the IC50 at 120 h in series [10] and in series [23] was under 32 nM each time.

For `Cc1sc2c(c1C)C(c1ccc(Cl)cc1)=N[C@@H](CC(=O)Nc1ccc(CCNC(=O)/C=C/c3cccnc3)cc1)c1nnc(C)n1-2`, the IC50 was 11700 nM in series [1], over 1000 nM in [2] and 17 nM in [3].

For the compound `Cc1sc2c(c1C)C(c1ccc(Cl)cc1)=N[C@@H](CC(=O)N1CCC(CNC(=O)/C=C/c3cccnc3)CC1)c1nnc(C)n1-2`, the IC50 in series [1] was 5730 nM; in series [2], 141 nM; in series [3] it was over 1000 nM.

For the compound `Cc1sc2c(c1C)C(c1ccc(Cl)cc1)=N[C@@H](CC(=O)NCCNC(=O)/C=C/c1cccnc1)c1nnc(C)n1-2`, the results for the IC50 in [1], in series [2] and in series [3] were 12900 nM, 50 nM and 410 nM, respectively.

In the case of `Cc1sc2c(c1C)C(c1ccc(Cl)cc1)=N[C@@H](CC(=O)NCCCCCNC(=O)/C=C/c1cccnc1)c1nnc(C)n1-2`, the values for the IC50 in series [1], in series [2] and in series [3] were 11300 nM, 387 nM and 115 nM, respectively.

One may read the IC50 as the concentration needed to halve the response being measured. As a reminder, the TGI is the reduction of tumour growth relative to the control group.
